Assay results taken from paper PMC10762078, “Role of UPF1-LIN28A interaction during early differentiation of pluripotent stem cells” (Nature Communications, 2024).
Blank lines part the entries; values can stand above or below the molecule they belong to. Ends that are not written are not given here.

Columns and labels:
[1] = tested on: HeLa, PA-1 and CHA15 cells; assay: Cell-penetrating efficiency of CPP-FITC by confocal microscopy; assay type: cell-based; conditions: PA-1, CHA15
Description: (§1) For CPP-conjugated peptide delivery, HeLa, 293T, and PA-1 cells were incubated with CPP-conjugated peptides or CPP-FITC at 2 μM in DMEM with 10% FBS for 12 h a day before cell harvest. hPSCs were treated with CPP-conjugated peptides at 10 μM in mTeSR Plus Medium, and the peptide-containing medium was changed every day over 10 days. The ROCK inhibitor (Tocris Bioscience, Y-27632) treated-hPSCs were dissociated into single cells using Accutase (Merck, SCR005) and differentiated into ectoderm, mesoderm, and endoderm using the STEMdiff Trilineage Differentiation Kit ([…] Technologies, 05230) following the manufacturer’s protocol. Differentiated cells treated with CPP-conjugated peptides were analysed at 0, 3, and 5 days for ectoderm and endoderm, and at 0, 3, and 4 days for mesoderm.
Immunofluorescence staining, proximity ligation assay imaging, and cell-penetrating efficiency of CPP-FITC were imaged with a confocal laser scanning microscope (Leica, TSC SP5) or immunofluorescence microscope (Leica, DM5000B). Z-stacks were captured, with sections spanning the entire cell. The LAS X Life Science program was used to obtain the maximum intensity projections and cross-sections of the confocal images.
DAPI FITC Merge DAPI FITC Merge CHA15 H9 Pro2 H9
No peptide CPP-FITC Calnexin
For 2-day treatm ent For 4-day treatm ent […]
Supplementary Fig. 5 a HeLa, PA- 1, and CHA15 wer e treated with CPP-FITC. […]

[2] = tested on: let-7a, let-7g, miR-16-5p and their targets in CHA15 cells; assay: RT-qPCR of mature LIN28A-regulated miRNAs and CDF of let-7-5p / miR-16-5p target mRNAs (Supplementary Fig. 6f); assay type: cell-based, human; conditions: Fig. s6f, cumulative curves; P2/P1; Asymptotic two-sample Kolmogorov-Smirnov test, two-sided
Description: cDNA was synthesised using RevertAid Reverse Transcriptase (Thermo Fisher Scientific, EP0441) with synthesised random hexamer (Macrogen) for total RNA or stem-loop primers for miRNA. For RT-qPCR reactions, the SensiFAST SYBR No-ROX kit (Meridian Bioscience) was used according to the manufacturer’s protocol. All data analysis and visualisation were conducted using R 3.6.1 [www.r-project.org] or GraphPad Prism 10. RT primers for miRNA and RT-qPCR primer sequences are provided in Supplementary Data 6.
Genes regulated by miRNA let-7-5p and miR-16-5p were determined by TargetScanHuman. Among miRNA targets sorted by cumulative weighted context++ score (CWCS)[57], the 100 top genes were selected and analysed using CDF. […]
Scatter
(bottom panel), respectively. f Levels of m ature endogenous m iRNAs in CHA15 cells, which were regulated by LIN28A, were assessed using RT -qPCR. Cum ulative f raction of log2 fold change in the expression of genes regulated by let-7-5p and m iR-16- 5p was shown as CDF graphs. T he relative level of m RNA was norm alised to that of U6 snRNA in (c, d, and f). K–S tests were used for e and f. Unpaired Student’s t-test was used for c , d, and f . * p < 0.05, ** p < 0.01, *** p < 0.001. Exact p -values were provided in Source data. Data are presented as m ean values ± SEM. All statistical test used were two- sided. T he m inim um num ber of independent biological replicate experim ents was a and e n = 2, b–d and f n = 3. T he experim ents were conducted three tim es, each iteration producing consistent results.

[3] = tested on: CHA15 cells transcriptome / NMD targets; assay: RNA-seq of CPP-peptide-treated CHA15 cells (NMD targets, SDGs; Fig. 6a, b, d; Supplementary Fig. 6a; Supplementary Data 2); assay type: cell-based, Homo sapiens; conditions: CHA15, P2 vs P1 plot (Fig. 6d)
Description: as §1, with “and the peptide-containing medium was changed every day over 10 days.” left out
Total RNA concentration was calculated using Quant-IT RiboGreen (Invitrogen, R11490). To assess the integrity of the total RNA, samples were run on a TapeStation RNA screentape (Agilent). Only high-quality RNA preparations with RNA integrity number greater than 7.0 were used for the RNA library construction. A library was independently prepared with 1 μg of total RNA from each sample using the Illumina TruSeq Stranded mRNA Sample Prep Kit (Illumina, 20020594). The first step in the workflow involves purifying poly‐A-containing mRNA molecules using poly‐T‐attached magnetic beads. Following purification, mRNA was fragmented into small pieces using divalent cations at elevated temperatures. The cleaved RNA fragments were copied into first-strand cDNA using SuperScript II reverse transcriptase (Invitrogen, 18064022) and random primers. This was followed by second-strand cDNA synthesis using DNA polymerase I, RNase H, and dUTP. These cDNA fragments underwent an end repair process, adding a single ‘A’ base and ligating the adapters. The products were purified and enriched via PCR to create the final cDNA library. The libraries were quantified using the KAPA Library Quantification Kits for Illumina Sequencing platforms according to the qPCR Quantification Protocol Guide (KAPA BIOSYSTEMS, KR0405) and qualified using the TapeStation D1000 ScreenTape (Agilent). Indexed libraries were then submitted to an Illumina NovaSeq (Illumina), and Macrogen Inc. performed paired-end (2 × 100 bp) sequencing.
We pre-processed the raw reads from the sequencer to remove low-quality reads and adapter sequences before analysis and aligned the processed reads to Homo sapiens (GRCh37) using HISAT v2.1.0[52]. HISAT utilises two indices for alignment (a global whole-genome index and tens of thousands of small local indexes). These two types of indices are constructed using the same Burrows-Wheeler transform (BWT)/graph FM index (GFM) as Bowtie2. The reference genome sequence of Homo sapiens (GRCh37) and the annotation data were downloaded from the NCBI database. Transcript assembly was processed using StringTie v1.3.4d[53],[54]. […] Differentially expressed genes (DEGs) were analysed by ratio of FPKM or using DESeq2 with read counts. Log2 fold-change value of the NMD targets[25],[32], three germ layer markers, miRNA targets, or SDGs was converted into cumulative frequency curve using the R function, ‘ecdf’ (version 4.0.5). Gene functional classification and Gene ontology (GO) were performed using g:Profiler[56].

His-LIN28A [4] = biological target: T1, His-LIN28A (Homo sapiens, UniProt Q9H9Z2); assay: SPR analyte-ligand binding screening of eight peptides (P1-P8); conditions: SPR screening at 15 μM, 3 min association, 6 min dissociation
T1 construct: purchased LS-bio LS-G637
T1 sequence (Q9H9Z2 1-209): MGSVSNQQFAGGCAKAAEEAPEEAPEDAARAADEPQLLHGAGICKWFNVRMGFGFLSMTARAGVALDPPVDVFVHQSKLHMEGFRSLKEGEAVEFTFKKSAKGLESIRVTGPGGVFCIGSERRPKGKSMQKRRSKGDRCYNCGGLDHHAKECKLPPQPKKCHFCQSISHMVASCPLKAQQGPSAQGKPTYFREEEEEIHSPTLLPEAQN
Description: For ligand immobilisation, the nitrilotriacetic acid (NTA) surface gold sensor chip (icluebio) was activated with 5 mM NiCl2 (Xantec) at a flow rate of 30 μL/min, following equalisation with 1× HBS-T buffer. His-LIN28A (LS-bio, LS-G637) was used as a ligand protein and was applied to a sensor chip at a flow rate of 10 μL/min for 40 min after dilution in 1× HEPES-buffered saline (HBS-T) buffer at a 1/20 ratio. Approximately 1000 resonance units (RU) were bonded to the sensor chip after ligand immobilisation. RU was measured using iMSPR-ProX (icluebio). An indigenous NTA sensor chip was used as a reference channel.
Analyte-ligand binding screening was performed by tethering the ligand and reference channels in the connected mode. […] After equalisation with 1× HBS-T buffer, the sensor chip was treated with each peptide for 3 min and then for 6 min with 1× HBS-T buffer for peptide dissociation.

His-LIN28A [5] = biological target: T2, His-LIN28A (UniProt Q9H9Z2 1-209); assay: SPR
T2 chain: T1 sequence (Q9H9Z2 1-209)

His-LIN28A [6] = biological target: T2, His-LIN28A; assay: SPR

Molecule: CPP-FITC: CPP conjugated to FITC, used to evaluate cell-penetrating ability in cells (KKKWCRKKK; also: FITC conjugate)
intracellular distribution [1]: distribution of CPP-FITC in the cytoplasm

Molecule: KKKWCRKKKMPELQKLQQLKDE [CPP-P2, CPP conjugated to P2; negative control, reference compound]
let-7-5p targets, log2FC cumulative curve: Kolmogorov-Smirnov D [2]: 0.07965
miR-16-5p targets, log2FC cumulative curve: Kolmogorov-Smirnov D [2]: 0.2271
ACADL expression (dot plot) [3]: -0.6893
AOC1 expression (dot plot) [3]: -1.502
BLOC1S5-TXNDC5 expression (dot plot) [3]: -0.1425
TRIM39-RPP21 expression (dot plot) [3]: 0.7164

binding affinity vs others (His-LIN28A [4]): slightly
Molecule: N-STSFDRMQSALKTFAVD-C [P4, peptide derived from the UPF1 (419–700) domain]

koff (His-LIN28A [5]): 0.0137 s⁻¹
Kd (His-LIN28A [6]): 5.2 µM
Molecule: SSADEKRYRALKRTAERELLMNA [P8]
